In patent publication US20240016787A1, “METHODS FOR TREATMENT OF CANCER AND PHAGOCYTOSIS-DEFICIENCY RELATED DISEASES” (RDiscovery, LLC, priority 2020, published 2024):

What was measured:
mdx mouse = mdx mouse model of Duchenne muscular dystrophy (DMD); assay type: in vivo; details: mdx mice, vs MDX-Vehicle
Description: The effect of cilnidipine and the cilnidipine derivative NS4-043 in the mdx mouse model of Duchenne muscular dystrophy (DMD) model was evaluated. The mdx mouse has a point mutation in its DMD gene, changing the amino acid coding for a glutamine to a stop codon, which causes the muscle cells to produce a small, nonfunctional dystrophin protein.
Animals were dosed once daily with vehicle, idebenone or cilnidipine on study days: 0 to 20.
Mice were evaluated by a rotarod test on study days 19 and 20. Body weight was measured throughout the study period. […] (CK) and […] (LDH), two biomarkers of DMD, were measured on day 21.

[1] = system: MC38 cells, a murine colon adenocarcinoma cell line; test: In vivo anti-tumor effect in MC38 tumor-bearing C57BL/6 mice; parameters: species or system mouse; details: i.t. on days 10 and 14 after tumor inoculation; vs control mice
Description: The in vivo anti-tumor effect of cilnidipine is assessed in MC38 tumor-bearing C57BL/6 mice. Five or seven week old C57BL/6 mice are maintained under specific pathogen-free (SPF) conditions. Mice are injected subcutaneously with 5×10^5 MC38 cells, a murine colon adenocarcinoma cell line, and treated i.t. with cilnidipine on days 10 and 14 after tumor inoculation. Tumor volume is measured at the various time points.

[2] = system: Capan-1 human pancreatic ductal adenocarcinoma cells; test: Subcutaneous Capan-1 pancreatic cancer xenograft model in female BALB/c nude mice; assay type: in vivo
Description: A study of the in vivo therapeutic efficacy of cilnidipine as a single agent or in combination with gemcitabine in the treatment of the subcutaneous Capan-1 pancreatic cancer xenograft model in female BALB/c nude mice was performed.
Female BALB/c nude mice 7-9 weeks of age were used in the study.
Capan-1 human pancreatic ductal adenocarcinoma cells were cultured in IMEM medium with 20% FBS at 37° C. and 5% CO2 in air atmosphere.
Each mouse was inoculated subcutaneously in the right upper flank region with tumor cells (5×10^6 cells) in 0.1 ml of PBS with Matrigel (1:1) for tumor development.
Randomization was started when the mean tumor size reached approximately 254.27 mm^3. A total of 48 mice were enrolled in the study and randomly allocated to the six study groups, with eight mice per group. Randomization was performed based on “Matched distribution” method (Study Director™ software, version 3.1.399.19). The date of randomization was denoted as day 0.
After tumor inoculation, the animals were checked daily for morbidity and mortality. During routine monitoring, the animals were checked for any effects of tumor growth and treatments on behavior such as mobility, food and water consumption, body weight gain/loss (body weights were measured twice per week after randomization), eye/hair matting and any other abnormalities. Mortality and observed clinical signs were recorded for individual animals in detail.
Tumor volumes were measured twice per week after randomization in two dimensions using a caliper, and the volume was expressed in mm^3 using the formula: V=(L×W×W)/2, where V is tumor volume, L is tumor length (the longest tumor dimension) and W is tumor width (the longest tumor dimension perpendicular to L). Dosing as well as tumor and body weight measurements were conducted in a Laminar Flow Cabinet. Body weights and tumor volumes were measured by using Study Director™ software (version 3.1.399.19).
The vehicle used for cilnidipine was 5% DMSO and corn oil. The vehicle used for gemcitabine was saline. Dosing volume was adjusted for body weight (dosing volume=5/10 μL/g). Treatments were initiated on day 0 following randomization.
The study was planned so that (1) mice showing a body weight loss (BWL)>20% after one measurement would be sacrificed, (2) mice showing BWL>15% after one measurement would be given a dosing holiday in a separate cage alone with daily monitoring for 72 hours, while other mice in the same group would receive dosing as scheduled, with treatment of the isolated mouse resuming when the BWL had recovered to BWL<10%, and (3) mice showing a BWL>10% would receive supplemental gel. BWL was calculated based on the BW on the first day of treatment.
The study endpoint was tumor growth inhibition (TGI). […] TGI is expressed as: TGI (%)=100×(1−T/C). […]

[3] = system: pancreatic and melanoma cancer cell lines; test: Anti-proliferative effects on cancer cell lines in vitro; assay type: cell-based; details: AsPC-1, Capan-1, KP4, MIA PaCa-2, BxPC-3, A375, SK-MEL-28, MeWo
Description: The effect of cilnidipine on cell proliferation of eight cancer cell lines is evaluated. Five pancreatic cancer cell lines are included, four containing KRAS mutations (AsPC-1 (G12D), Capan-1 (G12V), KP4 (M188V, G12D) and MIA PaCa-2 (G12C)), and one pancreatic cancer cell line with wild type KRAS, BxPC-3, in addition to three melanoma cell lines, two of which contain B-Raf mutations: A375 (V600E) and SK-MEL-28 (V600E), and one melanoma cell line with wild type B-Raf, MeWo.

[4] = system: J774.1 mouse macrophage cell line; test: In vitro phagocytosis of PE-labeled polystyrene beads by macrophages (flow cytometry); assay type: cell-based; details: 0.3 μM, 1 μM, or 3 μM for 20 hours; beads 2.5 hours; vs DMSO vehicle
Description: The effect of cilnidipine on phagocytosis by macrophages was evaluated in vitro using the J774.1 mouse macrophage cell line. Cells were seeded at 2×10^5 cells/well/200 μL of a 48 well plate and cultured for 24 hours in DMEM medium containing 10% FBS and antibiotics at 37° C. under 5% CO2. Cells were washed once and then incubated with cilnidipine at concentrations 0.3 μM, 1 μM, or 3 μM, or DMSO (vehicle) for 20 hours.
The level of phagocytosis was evaluated by adding 10 μL of DMEM medium containing 4×10^6 PE-labeled polystyrene beads (Fluoresbrite® Polychromatic Red Microspheres 2.0 μm) to cells and culturing them for 2.5 hours. Cells were then washed 3 times with PBS and collected. The level of phagocytic activity was assessed by flow cytometry, measuring the amount of fluorescent signal derived from the PE-labelled beads that were taken up by the cells, with cells treated with 0.1% DMSO used as negative control. The proportions of cells engulfing 1 or more, 2 or more, 3 or more, and 4 or more particles were measured.

[5] = 10 mg/kg once daily days 0 to 20, measured day 21
[6] = 200 mg/kg once daily days 0 to 20, measured day 21

Q: COCCOC(=O)C1=C(C)NC(C)=C(C(=O)OC/C=C/c2ccccc2)C1c1cccc([N+](=O)[O-])c1 (stereo not drawn) [Cilnidipine] was tested. Which “plasma CK” value (mdx mouse; [5]) did it give?
A: significantly suppressed plasma CK

Q: What about the “plasma LDH” value (mdx mouse; [5]) of the same compound?
A: significantly decreased plasma LDH

Q: And the tumor growth [1]?
A: reduces tumor growth as compared to control mice

Q: And the “Tumor Growth Inhibition (TGI) on Day 20, TGI vs G01” value (“Tumor Growth Inhibition … vs G01” for short) ([2]; Group 4: cilnidipine 10 mg/kg p.o. QD × 21 days)?
A: 9.014%

Q: What about the “Tumor Growth Inhibition … vs G01” value ([2]; Group 4: cilnidipine 10 mg/kg p.o. QD × 21 days, listed as cilnidipine) of the same compound?
A: 9.01%

Q: And the “anti-proliferative effect on cancer cell lines” value [3]?
A: has an anti-proliferative effect on the cell lines

Q: And the “phagocytic activity of macrophages” value [4]?
A: enhanced phagocytic activity of macrophages in a dose dependent manner

Q: How did the “Tumor Growth Inhibition … vs G01” value ([2]; Group 2: gemcitabine 30 mg/kg i.p. Q3D × 4) turn out when Nc1ccn([C@@H]2O[C@H](CO)[C@@H](O)C2(F)F)c(=O)n1 [Gemcitabine] was run?
A: 15.273%

Q: What about the “Tumor Growth Inhibition … vs G01” value ([2]; Group 3: gemcitabine 100 mg/kg i.p. Q3D × 4) of the same compound?
A: 30.717%

Q: How did the “plasma CK” value (mdx mouse; [6]) turn out when COC1=C(OC)C(=O)C(CCCCCCCCCCO)=C(C)C1=O [Idebenone] was run?
A: but not idebenone, significantly suppressed plasma CK

Q: What about the “plasma LDH” value (mdx mouse; [6]) of the same compound?
A: significantly decreased plasma LDH

Q: COCCOC(=O)C1=C(C)NC(C)=C(C(=O)OC/C=C/c2ccncc2)C1c1ccccc1[N+](=O)[O-] (stereo not drawn) [NS4-043] was tested. Which “plasma LDH” value (mdx mouse; [5]) did it give?
A: did not significantly decrease plasma LDH
